Results: patent US11174232B2, “Substituted heterocyclyl derivatives as CDK inhibitors” (Aurigene Discovery Technologies Limited, priority 2015, dated 2021)
pIC50: −log10 of the molar value.

Target: CDK7/CycH/MNAT1 (Homo sapiens (Human), UniProt P50613)
Test: Biochemical Assay for CDK7 (TR-FRET kinase assay)
Conditions: 60 min pre-incubation with kinase, 1 mM ATP
Procedure: Biochemical Assay for CDK7:
The ability of compounds to inhibit CDK7 kinase activity was tested in a TR-FRET assay using 5 nM of CDK7/CycH/MNAT1 obtained from Invitrogen, USA. Test compounds were pre-incubated with the kinase at room temperature for 60 min. After the incubation, substrate mix [100 nM Ultra-light MBP (Perkin Elmer, USA) and 1 mM ATP (Sigma)] was added. The above reaction was stopped by the addition of 40 mM EDTA after 60 minutes of kinase reaction. 1 nM Eu-labelled antiphospho-MBP antibody [Perkin Elmer, USA] was added, mixed well and the fluorescence emission at 615 nm and 665 nm [excitation at 340 nm] was measured. The final DMSO concentration in the assay was 1%. For IC50 determination, appropriate concentrations were made by ⅓^rd serial dilutions of 10 mM DMSO stock solution of test compound. All the fluorescence measurements were made in a Victor 3 Multilabel Counter [Perkin Elmer, USA]. The IC50 was determined by fitting the dose response data to sigmoidal curve fitting equation using GraphPad Prism software V5. To identify compounds that inhibit CDK7 irreversibly, time depended inhibition studies were carried by pre-incubating compound with the enzyme at three time points (20, 60 and 180 min) and carrying out assay as described above.
The compounds were screened by the above mentioned assay procedure.

Chain of CDK7/CycH/MNAT1 (P50613 whole entry): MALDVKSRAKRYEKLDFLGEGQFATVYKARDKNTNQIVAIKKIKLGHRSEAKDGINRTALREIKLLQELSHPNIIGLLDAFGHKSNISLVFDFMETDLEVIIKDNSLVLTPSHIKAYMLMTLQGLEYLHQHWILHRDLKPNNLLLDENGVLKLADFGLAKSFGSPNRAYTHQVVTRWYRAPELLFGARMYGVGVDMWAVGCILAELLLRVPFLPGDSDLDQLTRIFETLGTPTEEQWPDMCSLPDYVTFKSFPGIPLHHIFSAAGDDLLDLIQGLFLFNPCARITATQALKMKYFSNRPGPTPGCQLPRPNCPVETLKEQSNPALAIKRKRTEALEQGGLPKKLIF
Chain of CDK7/CycH/MNAT1 (P51946 whole entry partner): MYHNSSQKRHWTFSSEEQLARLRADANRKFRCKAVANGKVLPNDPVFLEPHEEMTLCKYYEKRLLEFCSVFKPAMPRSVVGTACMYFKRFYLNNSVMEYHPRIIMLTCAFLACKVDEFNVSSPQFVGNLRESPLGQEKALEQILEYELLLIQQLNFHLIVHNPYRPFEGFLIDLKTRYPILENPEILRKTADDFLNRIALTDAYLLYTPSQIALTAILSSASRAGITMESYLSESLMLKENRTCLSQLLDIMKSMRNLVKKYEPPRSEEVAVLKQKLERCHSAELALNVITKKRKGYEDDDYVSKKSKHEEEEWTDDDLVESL
Chain of CDK7/CycH/MNAT1 (P51948 whole entry partner): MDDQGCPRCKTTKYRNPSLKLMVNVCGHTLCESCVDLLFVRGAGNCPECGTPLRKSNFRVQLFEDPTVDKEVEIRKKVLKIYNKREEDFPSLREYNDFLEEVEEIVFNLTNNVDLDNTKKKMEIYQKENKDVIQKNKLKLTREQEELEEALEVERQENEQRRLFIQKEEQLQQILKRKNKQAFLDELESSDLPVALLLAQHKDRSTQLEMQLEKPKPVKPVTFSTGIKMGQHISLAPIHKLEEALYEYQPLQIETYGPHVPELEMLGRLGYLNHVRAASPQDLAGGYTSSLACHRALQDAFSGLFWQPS

Structure (SMILES) | inhibition at 10 µM (10 μM compound) [%] | pIC50 | % inhibition @ 10 μM (10 μM compound) [%]
CC(C(=O)Nc1cc(C2CC2)[nH]n1)c1cccc(-c2ccc(NC(=O)/C=C/CN3CCCCC3)cn2)c1 (stereo not drawn) [Compound 39, (E)-N-(6-(3-(1-((5-cyclopropyl-1H-pyrazol-3-yl)amino)-1-oxopropan-2-yl)phenyl)pyridin-3-yl)-4-(piperidin-1-yl)but-2-enamide] | 84 | < 7.00 | 
CCc1cc(NC(=O)C(C)c2cccc(-c3ccc(NC(=O)/C=C/CN(C)C)cc3)c2)n[nH]1 (stereo not drawn) [Compound 8, (E)-4-(dimethylamino)-N-(3′-(1-((5-ethyl-1H-pyrazol-3-yl)amino)-1-oxopropan-2-yl)-[1,1′-biphenyl]-4-yl)but-2-enamide] | 92 | < 7.00 | 
CC(C(=O)Nc1cc(C2CC2)[nH]n1)c1cccc(-c2ccc(NC(=O)/C=C/CN(C)C)cc2)c1 (stereo not drawn) [Compound 1, (E)-N-(3′-(1-((5-cyclopropyl-1H-pyrazol-3-yl)amino)-1-oxopropan-2-yl)-[1,1′-biphenyl]-4-yl)-4-(dimethylamino)but-2-enamide] | 92 | 7.00 to 7.60 | 
C=CC(=O)Nc1ccc(-c2cc(C(C)C(=O)Nc3cc(C4CC4)[nH]n3)ccc2F)cc1F (stereo not drawn) [Compound 23, N-(5′-(1-((5-cyclopropyl-1H-pyrazol-3-yl)amino)-1-oxopropan-2-yl)-2′,3-difluoro-[1,1′-biphenyl]-4-yl)acrylamide] | 98 | 7.00 to 7.60 | 
CC(C(=O)Nc1cc(C2CC2)[nH]n1)c1cccc(-c2ccc(NC(=O)/C=C/CN(C)C)cc2F)c1 (stereo not drawn) [Compound 17, (E)-N-(3′-(1-((5-cyclopropyl-1H-pyrazol-3-yl)amino)-1-oxopropan-2-yl)-2-fluoro-[1,1′-biphenyl]-4-yl)-4-(dimethylamino)but-2-enamide] | 80 | < 7.00 | 
CC(C)C(C(=O)Nc1cc(C2CC2)[nH]n1)c1cccc(-c2ccc(NC(=O)/C=C/CN(C)C)cn2)c1 (stereo not drawn) [Compound 36, (E)-N-(6-(3-(1-((5-cyclopropyl-1H-pyrazol-3-yl)amino)-3-methyl-1-oxobutan-2-yl)phenyl)pyridin-3-yl)-4-(dimethylamino)but-2-enamide] | 98 | > 7.60 | 
CCN(CC)C/C=C/C(=O)Nc1ccc(-c2cccc(C(C)C(=O)Nc3cc(C4CC4)[nH]n3)c2)cc1F (stereo not drawn) [Compound 32, (E)-N-(3′-(1-((5-cyclopropyl-1H-pyrazol-3-yl)amino)-1-oxopropan-2-yl)-3-fluoro-[1,1′-biphenyl]-4-yl)-4-(diethylamino)but-2-enamide] | 100 | > 7.60 | 
CN(C)C/C=C/C(=O)Nc1ccc(-c2cccc(CC(=O)Nc3cc(C4CC4)[nH]n3)c2)cc1 [Compound 7, (E)-N-(3′-(2-((5-cyclopropyl-1H-pyrazol-3-yl)amino)-2-oxoethyl)-[1,1′-biphenyl]-4-yl)-4-(dimethylamino)but-2-enamide] | 84 | < 7.00 | 
CC(C(=O)Nc1cc(C2CC2)[nH]n1)c1cccc(-c2ccc(NC(=O)/C=C/CN(C)C)cc2)c1 (single isomer, unassigned) [Compound 3, (E)-N-(3′-(1-((5-cyclopropyl-1H-pyrazol-3-yl)amino)-1-oxopropan-2-yl)-[1,1′-biphenyl]-4-yl)-4-(dimethylamino)but-2-enamide] |  | 7.00 to 7.60 | 99
CC(C(=O)Nc1cc(C2CC2)n(C)n1)c1cccc(-c2ccc(NC(=O)/C=C/CN(C)C)cc2)c1 (stereo not drawn) [Compound 6, (E)-N-(3′-(1-((5-cyclopropyl-1-methyl-1H-pyrazol-3-yl)amino)-1-oxopropan-2-yl)-[1,1′-biphenyl]-4-yl)-4-(dimethylamino)but-2-enamide] | 0 |  | 
CC(C(=O)Nc1cc(C2CC2)[nH]n1)c1cccc(-c2ccc(NC(=O)/C=C/CN(C)C)c(F)c2)c1 (stereo not drawn) [Compound 14, (E)-N-(3′-(1-((5-cyclopropyl-1H-pyrazol-3-yl)amino)-1-oxopropan-2-yl)-3-fluoro-[1,1′-biphenyl]-4-yl)-4-(dimethylamino)but-2-enamide] | 95 | < 7.00 | 

More lines, now with the values ahead:

inhibition at 10 µM (10 μM compound) [%] | pIC50 | % inhibition @ 10 μM (10 μM compound) [%] | Structure (SMILES)
78 | < 7.00 |  | C=CC(=O)Nc1ccc(-c2cccc(C(C)C(=O)Nc3cc(C4CC4)[nH]n3)c2)c(C)c1 (stereo not drawn) [Compound 75, N-(3′-(1-((5-cyclopropyl-1H-pyrazol-3-yl)amino)-1-oxopropan-2-yl)-2-methyl-[1,1′-biphenyl]-4-yl)acrylamide]
92 | < 7.00 |  | CC(C(=O)Nc1cc(C2CC2)[nH]n1)c1cccc(-c2cccc(NC(=O)/C=C/CN3CCOCC3)c2)c1 (stereo not drawn) [Compound 61, (E)-N-(3′-(1-((5-cyclopropyl-1H-pyrazol-3-yl)amino)-1-oxopropan-2-yl)-[1,1′-biphenyl]-3-yl)-4-morpholinobut-2-enamide]
100 | > 7.60 |  | C[C@H](C(=O)Nc1cc(C2CC2)[nH]n1)c1cccc(-c2ccc(NC(=O)/C=C/CN3CCOCC3)nc2)c1 [Compound 93, (S,E)-N-(5-(3-(1-((5-cyclopropyl-1H-pyrazol-3-yl)amino)-1-oxopropan-2-yl)phenyl)pyridin-2-yl)-4-morpholinobut-2-enamide]
99 | > 7.60 |  | CC(C)C(C(=O)Nc1cc(C2CC2)[nH]n1)c1cccc(-c2ccc(NC(=O)/C=C/CN(C)C)c(F)c2)c1 (stereo not drawn) [Compound 43, (E)-N-(3′-(1-((5-cyclopropyl-1H-pyrazol-3-yl)amino)-3-methyl-1-oxobutan-2-yl)-3-fluoro-[1,1′-biphenyl]-4-yl)-4-(dimethylamino)but-2-enamide]
89 | > 7.60 |  | CC(C(=O)Nc1cc(C2CC2)[nH]n1)c1cccc(-c2ccc(NC(=O)/C=C/CN3CCC(F)C3)nc2)c1 (stereo not drawn) [Compound 45, (E)-N-(5-(3-(1-((5-cyclopropyl-1H-pyrazol-3-yl)amino)-1-oxopropan-2-yl)phenyl)pyridin-2-yl)-4-(3-fluoropyrrolidin-1-yl)but-2-enamide]
94 | 7.00 to 7.60 |  | CC(C(=O)Nc1cc(C2CC2)[nH]n1)c1cccc(-c2ccc(NC(=O)/C=C/CN3CCC(F)C3)c(F)n2)c1 (stereo not drawn) [Compound 64, (E)-N-(6-(3-(1-((5-cyclopropyl-1H-pyrazol-3-yl)amino)-1-oxopropan-2-yl)phenyl)-2-fluoropyridin-3-yl)-4-(3-fluoropyrrolidin-1-yl)but-2-enamide]
85 | < 7.00 |  | O=C(/C=C/CN1CCCC1)Nc1ccc(-c2cccc(C3(C(=O)Nc4cc(C5CC5)[nH]n4)CC3)c2)cn1 [Compound 94, (E)-N-(5-cyclopropyl-1H-pyrazol-3-yl)-1-(3-(6-(4-(pyrrolidin-1-yl)but-2-enamido)pyridin-3-yl)phenyl)cyclopropane-1-carboxamide]
84 | < 7.00 |  | CC(C(=O)Nc1n[nH]c2ccccc12)c1cccc(-c2ccc(NC(=O)/C=C/CN(C)C)cc2)c1 (stereo not drawn) [Compound 91, (E)-N-(3′-(1-((1H-indazol-3-yl)amino)-1-oxopropan-2-yl)-[1,1′-biphenyl]-4-yl)-4-(dimethylamino)but-2-enamide]
99 | 7.00 to 7.60 |  | CC(C(=O)Nc1cc(C2CC2)[nH]n1)c1cccc(-c2ccc(NC(=O)/C=C/CN3CCC[C@H]3CC#N)nc2)c1 (stereo partly drawn) [Compound 82, (E)-4-((S)-2-(cyanomethyl)pyrrolidin-1-yl)-N-(5-(3-(1-((5-cyclopropyl-1H-pyrazol-3-yl)amino)-1-oxopropan-2-yl)phenyl)pyridin-2-yl)but-2-enamide]
48 |  |  | C=CC(=O)Nc1ccc(-c2cccc(CC(=O)Nc3cc(C)[nH]n3)c2)cc1 [Compound 86, N-(3′-(2-((5-Methyl-1H-pyrazol-3-yl)amino)-2-oxoethyl)-[1,1′-biphenyl]-4-yl)acrylamide]
62 | < 7.00 |  | C=CC(=O)Nc1ccc(-c2cccc(C(C)C(=O)Nc3cc(C(C)(C)C)[nH]n3)c2)cc1 (stereo not drawn) [Compound 88, N-(3′-(1-((5-(tert-butyl)-1H-pyrazol-3-yl)amino)-1-oxopropan-2-yl)-[1,1′-biphenyl]-4-yl)acrylamide]
99 | 7.00 to 7.60 |  | CC(C(=O)Nc1cc(C2CC2)[nH]n1)c1cccc(-c2cncc(NC(=O)/C=C/CN3CCOCC3)c2)c1 (stereo not drawn) [Compound 60, (E)-N-(5-(3-(1-((5-cyclopropyl-1H-pyrazol-3-yl)amino)-1-oxopropan-2-yl)phenyl)pyridin-3-yl)-4-morpholinobut-2-enamide]
100 | 7.00 to 7.60 |  | COC(=O)[C@@H]1CCCN1C/C=C/C(=O)Nc1ccc(-c2cccc(C(C)C(=O)Nc3cc(C4CC4)[nH]n3)c2)cn1 (stereo partly drawn) [Compound 81, methyl ((E)-4-((5-(3-(1-((5-cyclopropyl-1H-pyrazol-3-yl)amino)-1-oxopropan-2-yl)phenyl)pyridin-2-yl)amino)-4-oxobut-2-en-1-yl)-L-prolinate]
81 | < 7.00 |  | CON(C)C/C=C/C(=O)Nc1ccc(-c2cccc(C(C)C(=O)Nc3cc(C4CC4)[nH]n3)c2)cn1 (stereo not drawn) [Compound 62, (E)-N-(5-(3-(1-((5-cyclopropyl-1H-pyrazol-3-yl)amino)-1-oxopropan-2-yl)phenyl)pyridin-2-yl)-4-(methoxy(methyl)amino)but-2-enamide]
